Assay results published in article PMC5111122, “Peptides at the Interface: Self-Assembly of Amphiphilic Designer Peptides and Their Membrane Interaction Propensity” (Biomacromolecules, 2016).

Experiments:
[1] = not given; remark: listed apart in the source
[2] = TEM of peptide assemblies (negative staining, cryo); type: physicochemical
Description: (§1) Lyophilized peptides were dissolved in double-distilled water. NaOH (1 or 0.1 M) was added stepwise until the samples appeared as clear, colorless solutions. Stock solutions (50 mM) were then diluted with double-distilled water to obtain the desired concentrations. All samples were aged for 1 week under an argon atmosphere prior to fluorescence, SAXS, TEM, and attenuated total reflection Fourier transform infrared (ATR-FTIR) spectroscopy measurements.
Solutions of A6YD and V4WD2 (11 mM) were incubated for 1 week prior to TEM measurements. Samples were adsorbed onto a glow-discharged carbon-coated copper grid and allowed to settle for 1 min. Excess fluid was carefully removed with filter paper and immediately replaced by 5 μL of a 2% (w/v) uranyl acetate staining solution, which was centrifuged for 6 min at 10000 rpm prior to usage in order to precipitate potentially present aggregates. The uranyl acetate solution was allowed to settle for 30 s, blotted, and replaced by another 5 μL of fresh solution. After 30 s of incubation, the staining solution was removed and the sample was air-dried. Visualization of the samples was achieved by using a Fei Tecnai G^2 20 transmission electron microscope (Eindhoven, The Netherlands) operating at an acceleration voltage of 120 kV. Digital images were made using a Gatan US1000 CCD camera at 2K × 2K resolution.

[3] = Determination of the critical aggregation concentration (CAC), DPH fluorescence assay; type: physicochemical; settings: excitation 359 nm, emission 428 nm, peptide in double-distilled water cleared with NaOH, aged 1 week, intersection of two fitted straight lines
Description: as §1
A 4 μL portion of DPH in methanol (10 μM) was added to 50 μL of peptide solution of varying concentrations. All fluorescence spectra were recorded under identical conditions on a CLARIOstar microplate reader (BMG LABTECH, Ortenberg, Germany) with an excitation wavelength of 359 nm. Fluorescence emission was recorded at 428 nm. Samples were background corrected and normalized to the highest intensity readout. DPH is almost nonfluorescent in aqueous solutions and in the presence of randomly oriented peptide monomers. As soon as oriented structures are formed, a sharp increase in fluorescence intensity is observed. The CAC of the peptide is defined as the intersection point of two straight lines, fitting the low intensity region and the region with linearly increasing intensity.[18]

[4] = Differential scanning calorimetry (DSC) on DPPC MLVs; settings: as evidenced by DSC, EPR, and SAXS
Description: DPPC was dissolved in chloroform/methanol (2:1 v/v), mixed, and organic solvents were evaporated under a gentle stream of nitrogen, followed by drying under a vacuum overnight in order to completely remove residual organic solvents. The dry lipid-film was hydrated either by adding double-distilled water (reference) or by adding aqueous solutions of the peptides to finally obtain four different molar ratios: 50:1, 25:1, 10:1, and 5:1 DPPC/peptide (mol/mol). These ratios correspond to peptide concentrations of 1.1, 2.2, 5.5, and 11 mM, respectively. The DPPC concentration was 55 mM. The samples were incubated above the lipid’s phase transition temperature at 50 °C for 2 h, intermitted by vigorous vortexing every 15 min.
DPPC MLVs in the presence and absence of peptides were prepared as described above, incubated for 24 h at room temperature (gently rotating), and diluted with double-distilled water to 2.75 mM DPPC prior to measurements to fit the optimal concentration regime for DSC. Measurements were performed on a Microcal VP-DSC differential scanning calorimeter (Northampton, MA, USA). Scans were recorded at a constant scan rate of 0.5 °C/min from 10 to 80 °C. […] The sharpness of the transition was described by the full width at half-maximum (ΔT1/2), and calorimetric enthalpies (ΔH) were calculated by integrating the peak areas.

| Substance | peptide fiber diameter in presence of LDL | hard sphere radius (Rs) [1] | diameter of supramolecular cylinders (TEM, both techniques) ([2]; above the CAC, Fig. S11) | fiber diameter, cryo-TEM ([2]; cryogenic conditions) | nanofiber diameter, negative-staining TEM ([2]; negative staining with 2% uranyl acetate, peptide aged 1 week) | ∼CAC (critical aggregation concentration) [3] | interaction with DPPC MLVs [4] |
| --- | --- | --- | --- | --- | --- | --- | --- |
| Ac-AAAAAAYD-OH | 10 nm | 2.6 nm | – | – | – | – | – |
| Ac-AAAAAAYK-NH2 [A6YK] | – | – | 4- 12 nm | 8–12 nm | 4–10 nm | ~1 mM | no interaction |
